Assay results reported in patent US20130330358A1, “CRYSTAL STRUCTURE AND PEPTIDE INHIBITORS OF HAUSP DEUBIQUITINASE” (priority 2011, published 2013).

Key:
USP8 = biological target: T1, USP8 (Homo sapiens, UniProt P40818); format: biochemical; details: 0.25 μM purified USP8 pre-mixed with peptide 5 min
T1 sequence (P40818 1-1118): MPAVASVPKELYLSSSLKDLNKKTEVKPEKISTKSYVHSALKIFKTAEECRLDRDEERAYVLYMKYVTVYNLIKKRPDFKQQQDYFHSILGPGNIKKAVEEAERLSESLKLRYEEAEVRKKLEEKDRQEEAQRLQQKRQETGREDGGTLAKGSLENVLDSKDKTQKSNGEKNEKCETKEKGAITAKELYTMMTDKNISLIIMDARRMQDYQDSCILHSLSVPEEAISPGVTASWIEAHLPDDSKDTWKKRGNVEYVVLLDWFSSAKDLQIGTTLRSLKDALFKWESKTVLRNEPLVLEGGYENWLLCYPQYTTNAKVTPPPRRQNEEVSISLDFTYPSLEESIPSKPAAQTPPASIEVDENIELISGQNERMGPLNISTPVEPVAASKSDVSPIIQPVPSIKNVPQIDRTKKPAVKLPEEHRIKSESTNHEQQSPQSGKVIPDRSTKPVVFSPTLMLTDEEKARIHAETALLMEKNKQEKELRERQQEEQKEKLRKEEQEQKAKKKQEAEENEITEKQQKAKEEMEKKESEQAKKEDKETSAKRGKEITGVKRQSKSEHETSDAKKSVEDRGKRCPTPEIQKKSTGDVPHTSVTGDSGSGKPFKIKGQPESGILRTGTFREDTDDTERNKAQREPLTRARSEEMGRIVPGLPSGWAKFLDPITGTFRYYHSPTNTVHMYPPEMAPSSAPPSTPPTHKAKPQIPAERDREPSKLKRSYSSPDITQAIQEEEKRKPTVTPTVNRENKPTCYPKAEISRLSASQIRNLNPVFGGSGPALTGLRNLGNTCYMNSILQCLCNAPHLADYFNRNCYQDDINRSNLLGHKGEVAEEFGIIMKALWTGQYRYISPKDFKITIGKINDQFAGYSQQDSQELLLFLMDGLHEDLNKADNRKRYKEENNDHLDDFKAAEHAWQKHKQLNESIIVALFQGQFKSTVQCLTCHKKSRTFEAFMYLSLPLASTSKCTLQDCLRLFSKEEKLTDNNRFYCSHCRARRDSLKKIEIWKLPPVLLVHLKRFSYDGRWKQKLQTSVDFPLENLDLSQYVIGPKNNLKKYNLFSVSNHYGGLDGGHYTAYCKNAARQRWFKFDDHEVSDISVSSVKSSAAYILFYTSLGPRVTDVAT

HAUSP [1] = biological target: T2, HAUSP (Homo sapiens, UniProt Q93009); assay: In vitro DUB assay, purified HAUSP with ubiquitinated MDM2 as substrate; details: HAUSP preincubated with increasing amounts of peptide (FIG. 2f)
T2 sequence (Q93009 whole entry): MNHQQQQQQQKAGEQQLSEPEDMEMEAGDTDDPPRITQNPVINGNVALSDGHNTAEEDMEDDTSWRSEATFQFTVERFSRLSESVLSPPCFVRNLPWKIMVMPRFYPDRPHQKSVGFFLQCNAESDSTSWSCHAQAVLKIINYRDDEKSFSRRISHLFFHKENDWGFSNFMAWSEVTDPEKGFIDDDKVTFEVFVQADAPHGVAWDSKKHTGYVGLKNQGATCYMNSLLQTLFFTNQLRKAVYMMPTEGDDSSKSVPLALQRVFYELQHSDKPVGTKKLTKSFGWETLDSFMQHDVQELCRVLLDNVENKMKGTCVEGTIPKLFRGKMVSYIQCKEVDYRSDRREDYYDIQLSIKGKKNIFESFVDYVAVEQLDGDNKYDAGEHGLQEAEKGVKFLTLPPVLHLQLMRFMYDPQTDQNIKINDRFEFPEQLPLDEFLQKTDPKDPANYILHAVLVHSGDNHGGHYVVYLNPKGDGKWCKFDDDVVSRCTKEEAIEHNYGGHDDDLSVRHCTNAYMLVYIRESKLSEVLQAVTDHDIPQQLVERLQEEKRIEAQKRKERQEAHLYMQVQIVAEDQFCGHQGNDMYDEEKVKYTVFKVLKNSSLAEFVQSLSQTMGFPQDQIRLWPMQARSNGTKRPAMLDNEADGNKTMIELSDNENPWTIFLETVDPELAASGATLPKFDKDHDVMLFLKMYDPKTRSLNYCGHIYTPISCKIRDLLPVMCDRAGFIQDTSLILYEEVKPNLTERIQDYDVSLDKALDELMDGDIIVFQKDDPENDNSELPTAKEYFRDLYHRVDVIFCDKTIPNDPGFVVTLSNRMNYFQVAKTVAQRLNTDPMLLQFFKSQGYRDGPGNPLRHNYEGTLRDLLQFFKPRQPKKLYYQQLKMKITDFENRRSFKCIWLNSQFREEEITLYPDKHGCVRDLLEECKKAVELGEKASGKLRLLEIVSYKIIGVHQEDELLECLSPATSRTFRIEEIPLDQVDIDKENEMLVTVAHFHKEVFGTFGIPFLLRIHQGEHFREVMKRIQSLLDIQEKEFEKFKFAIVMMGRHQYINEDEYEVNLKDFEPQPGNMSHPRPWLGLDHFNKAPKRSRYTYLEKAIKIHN

[2] = test system: SJSA-1 (MDM2 amplification); assay: WST-1 cell growth assay, SJSA-1; format: cell-based, human; details: SJSA-1, 100 μM, compared with LnCap cells
HAUSP [3] = biological target: T2, HAUSP; details: time course, K48-Ub3-7 chains, 37° C. (FIG. 2e)
[4] = test system: MCF7 (MDMX amplification); assay: WST-1 cell growth assay, MCF7; format: cell-based, human; details: MCF7, 100 μM, compared with LnCap cells
[5] = test system: p53 and its transcriptional targets p21 and MDM2; assay: Immunoblot of p53, MDM2, p21 and HAUSP levels in PEL cells; format: cell-based, human; details: FIG. 3d
Text: The results were quantified as mean±s.d. of the combined results from three independent experiments; Data are mean±s. e. m.; n=200-300 cells from three independent experiments. *P<0.01 and **P<0.001. A Beckman Coulter Z2 Particle Count and size analyzer (BC Z2 CS analyzer) and trypan blue staining were used to determine cell death and for cell growth analysis. […] BrdU incorporation during the S phase is quantified as percentage of stained cells. […] Data are culled from 3 independent experiments. […] Apoptosis in VG1 cells was assessed at 48 h after treatment with 10 μM Nutlin-3a or 100 μM of each peptide by Annexin V/PI staining and measured by flow cytometry analysis. […] Numbers indicate the percentage of cells in each quadrant. […] VG1 and BJAB cells were treated with the same dose as used in (b) and (c) for 6 h and aliquots of cell lysates containing […] of protein were analyzed by IB with the indicated antibody. […] Tumors were measured by in vivo bioluminescence imaging. […] The results were quantified as mean±s.d. of the combined results from three independent experiments; Data are mean±s. e. m.; n=200-300 cells from three independent experiments. *P<0.05 and **P<0.01. […]

[6] = biological target: T3, HAUSP TRAF domain HAUSP^62-205 (Homo sapiens, UniProt Q93009); assay: Size exclusion chromatography, complex formation in 5-fold excess of MDM2^137-152; format: binding; details: in the presence of a 5-fold molar excess of MDM2 peptide
T3 construct: HAUSP^62-205, and HAUSP^62-560 were fused to a hexahistidine-tag2 and expressed in E. coli BL21 (DE3) RIPL cells; hexahistidine (cleaved yes); made in house; host or cells: E. coli BL21 (DE3) RIPL
T3 sequence (Q93009 62-205): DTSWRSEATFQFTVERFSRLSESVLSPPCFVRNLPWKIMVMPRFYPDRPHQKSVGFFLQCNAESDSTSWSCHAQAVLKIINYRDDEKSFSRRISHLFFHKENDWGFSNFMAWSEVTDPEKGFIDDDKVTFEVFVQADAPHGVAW

[7] = biological target: T3, HAUSP TRAF domain HAUSP^62-205; assay: biochemical; format: binding; details: ITC, 20° C.; read-out: Kd
Method: FIG. 5. Typical isothermal titration calorimetric measurements of the interactions between the HAUSP TRAF domain and the vIRF4 protein derivatives or other peptides. Purified proteins and synthesized peptides were reconstituted in 150 mM NaCl and 10 mM HEPES (pH 7.0). The calorimetric assays were performed using a VPITC system. All experiments were carried out with a stirring speed of 300 rpm at 20° C., and the thermal power was recorded every 10 s. Data were analyzed using the ORIGIN software package (version 7.0). […] Each titration against the HAUSP TRAF domain is indicated in each panel.
Purified proteins and synthesized peptides (Peptron Inc., Deajeon, Korea) were reconstituted in 150 mM NaCl and 10 mM HEPES (pH 7.0). The calorimetric assays were performed using a VP-ITC system (MicroCal Inc., Northampton, Mass.). Samples were degassed by vacuum aspiration for 15 min prior to loading. All experiments were carried out with a stirring speed of 300 rpm at 20° C., and the thermal power was recorded every 10 s. Data were analyzed using the ORIGIN software package (version 7.0) supplied with the instrument. […]

| Compound | USP8 DUB activity (USP8) | HAUSP DUB activity against ubiquitinated MDM2 (HAUSP [1]) | cell growth inhibition [2] | HAUSP DUB activity, comparative kinetic analysis (HAUSP [3]) | cell growth inhibition [4] | HAUSP levels [5] | complex formation with the HAUSP TRAF domain [6] | Kd [7] [nM] |
| --- | --- | --- | --- | --- | --- | --- | --- | --- |
| TRQVTQASSFTWRVPG [vif2] | neither vif1 peptide nor vif2 peptide was capable of inhibiting USP8 DUB activity | efficiently blocked HAUSP enzymatic activity | did not show as robust a susceptibility | completely suppressed HAUSP DUB activity | did not show as robust a susceptibility | Neither vif1 nor vif2 peptide treatment altered HAUSP levels |  |  |
| CC[C@H](C)[C@H](NC(=O)[C@H](Cc1c[nH]c2ccccc12)NC(=O)[C@@H](NC(=O)[C@@H](N)CO)C(C)C)C(=O)N1CCC[C@H]1C(=O)N[C@H](C(=O)N[C@@H](CC(N)=O)C(=O)N[C@@H](CCC(=O)O)C(=O)NCC(=O)N[C@@H](C)C(=O)N[C@@H](CO)C(=O)N[C@H](C(=O)N[C@@H](CO)C(=O)NCC(=O)N[C@@H](CCSC)C(=O)O)[C@@H](C)O)C(C)C [vIRF4^202-216] | neither vif1 peptide nor vif2 peptide was capable of inhibiting USP8 DUB activity | efficiently blocked HAUSP DUB activity | did not show as robust a susceptibility | weakly attenuated HAUSP DUB activity | did not show as robust a susceptibility | Neither vif1 nor vif2 peptide treatment altered HAUSP levels | formed a stable complex |  |
| C[C@H](NC(=O)[C@@H]1CCCN1C(=O)CNC(=O)[C@H](CCC(N)=O)NC(=O)[C@@H](N)CCC(=O)O)C(=O)N[C@@H](CC(=O)O)C(=O)N[C@@H](CC(=O)O)C(=O)N1CCC[C@H]1C(=O)NCC(=O)N[C@@H](CCC(=O)O)C(=O)NCC(=O)N1CCC[C@H]1C(=O)N[C@@H](CO)C(=O)N[C@H](C(=O)NCC(=O)O)[C@@H](C)O [EBNA1^435-449, reference compound] |  |  |  |  |  |  |  | 480 ± 40 |
